What was measured:
Assay in all cases: relative viability (nuclei count vs DMSO), 5 days (fraction); higher = more cells survive
AZ3146 + Phenformin = compound: CN1CCC(CC1)OC2=CC(=C(C=C2)NC3=NC=C4C(=N3)N(C(=O)N4C)C5CCCC5)OC [AZ3146] + N=C(N)NC(=N)NCCc1ccccc1 [Phenformin] (partner 250 µM)
Summary of the method: (§1)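 For relative viability, nuclei counts in treated wells were divided by those in vehicle wells. Lung cancer cell lines had been pin-tool dosed in 1536-well plates the day after seeding and cultured for 5 days, then fixed and stained in one step (final 0.05% Triton X-100, 1% formaldehyde, 1 ug/ml Hoechst) and imaged at 4×. Doses were one drug alone or a fixed anchor-drug dose plus five library-drug doses (not always all listed) in √10 steps, and values are duplicate-plate medians.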

AZ3146 = compound: CN1CCC(CC1)OC2=CC(=C(C=C2)NC3=NC=C4C(=N3)N(C(=O)N4C)C5CCCC5)OC [AZ3146]
Summary of the method: (§2)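 Five library-drug doses spaced by √10 were pinned onto vehicle-anchored 1536-well plates of lung cancer cell lines that had been kept overnight at 37 °C. Cells went 5 days without medium change, then were fixed, permeabilised and Hoechst-stained together, imaged at 4× and counted by MetaXpress. Viability is the ratio of treated-well to vehicle-well nuclei, taken as a median over plates. Plates required control CV below 25% and at least one doubling.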

GSK-J4 = compound: CCOC(=O)CCNc1cc(N2CCc3ccccc3CC2)nc(-c2ccccn2)n1 [GSK-J4]
Summary of the method: as §2

GSK-J4 + Navitoclax = compound: CCOC(=O)CCNc1cc(N2CCc3ccccc3CC2)nc(-c2ccccn2)n1 [GSK-J4] + CC1(C)CCC(c2ccc(Cl)cc2)=C(CN2CCN(c3ccc(C(=O)NS(=O)(=O)c4ccc(N[C@H](CCN5CCOCC5)CSc5ccccc5)c(S(=O)(=O)C(F)(F)F)c4)cc3)CC2)C1 [Navitoclax] (partner 0.5 µM)
Summary of the method: as §1

Cell Line	relative viability (AZ3146 + Phenformin; first compound 0.08 µM)	relative viability (AZ3146 + Phenformin; first compound 0.253 µM)	relative viability (AZ3146 + Phenformin; first compound 0.8 µM)	relative viability (AZ3146 + Phenformin; first compound 2.53 µM)	relative viability (AZ3146 + Phenformin; first compound 8 µM)	relative viability (AZ3146; 0.08 µM)	relative viability (AZ3146; 0.253 µM)	relative viability (AZ3146; 0.8 µM)	relative viability (AZ3146; 2.53 µM)	relative viability (AZ3146; 8 µM)	relative viability (GSK-J4; 0.5 µM)	relative viability (GSK-J4; 1.581 µM)	relative viability (GSK-J4; 5 µM)	relative viability (GSK-J4; 15.81 µM)	relative viability (GSK-J4; 50 µM)	relative viability (GSK-J4 + Navitoclax; first compound 0.5 µM)	relative viability (GSK-J4 + Navitoclax; first compound 1.581 µM)	relative viability (GSK-J4 + Navitoclax; first compound 15.81 µM)	relative viability (GSK-J4 + Navitoclax; first compound 50 µM)	relative viability (GSK-J4 + Navitoclax; first compound 5 µM)
NCI-H522	0.818	0.698	0.757	0.631	0.62	0.917	0.943	0.926	0.899	0.938	1.06	0.746	0.789	0.75	0.559	–	–	–	–	–
HCC-366	0.58	0.544	0.607	0.601	0.587	0.9	0.939	1.02	0.973	0.988	1.03	0.851	–	0.988	0.989	1.08	0.806	1.02	1.03	–
A-427	0.375	0.332	0.243	0.282	0.227	0.963	1	1.01	1.04	0.766	1	–	0.766	0.865	0.37	0.951	–	0.906	0.782	0.925
NCI-H2347	0.296	0.357	0.461	0.598	0.42	0.997	1.03	0.913	1.1	1.07	0.984	0.879	0.886	0.952	0.849	0.7	0.746	0.829	0.608	0.774
NCI-H1792	0.191	–	0.318	0.267	0.121	0.759	0.776	0.93	0.841	0.905	0.932	0.606	0.925	0.697	0.832	0.621	0.571	0.567	0.514	0.574
SK-LU-1	0.486	0.512	0.424	0.607	0.345	0.944	1.07	1	1.08	0.936	0.947	0.865	0.826	0.838	0.704	0.733	0.832	0.596	0.537	0.682
RERF-LC-KJ	0.395	0.44	0.433	0.432	0.384	0.944	1.01	0.974	1.05	0.716	0.887	0.853	0.943	0.908	0.826	0.756	1.01	0.795	0.763	0.881
NCI-H1993	0.513	0.509	0.499	0.557	0.45	0.926	0.843	1	1.03	0.489	1.13	1.09	1.08	0.756	0.533	1.14	0.951	0.866	0.681	1.13
NCI-H1734	0.393	0.373	0.406	0.426	0.376	0.96	1.09	0.954	1.04	0.98	0.9	0.909	0.686	0.765	0.807	0.83	0.736	0.734	0.632	0.694
HCC-44	0.118	0.124	0.0902	0.364	0.273	0.969	0.917	1.09	1.02	0.89	1.01	0.864	0.861	1.02	1.01	0.973	0.91	0.817	0.898	1.08
NCI-H1944	0.168	0.18	0.188	0.19	0.207	0.777	0.919	1.07	1.03	0.982	0.939	0.874	0.828	0.734	0.931	1.06	0.953	0.913	1	1.15
HCC-78	0.421	0.557	0.566	0.81	0.551	–	1.01	0.864	0.989	0.956	1.06	0.946	1.14	0.728	0.92	0.779	0.681	–	0.689	1.01
NCI-H838	0.581	0.554	0.556	0.517	0.229	0.994	0.939	0.914	0.963	0.734	1.04	0.895	0.635	0.887	0.883	1.13	1.07	1.08	1.14	–
SW 1573	0.398	0.407	0.365	0.367	0.239	0.994	1.04	0.991	0.959	0.68	0.926	0.96	0.851	0.949	0.756	0.941	1.1	0.823	0.705	0.951
